# Measurements taken from publication PMC2408655 (Journal of Neurochemistry, 2008).
# Like-named read-outs stand apart in the source and are kept apart here.
# Tests used:
# [1] = target: Aβ fibrils; settings: read-out: Kd and Ki values, Aβ, in vitro generated Aβ fibrils, cited from earlier work
# [2] = target: T1, α-synuclein (AS) filaments (Homo sapiens, UniProt P37840); test: Radioligand competition assay of α-synuclein; format: binding; settings: for displacement of the radioligand from the AS filaments: [3H]-Me-BTA1 radioligand, Fig. 3b
# [3] = target: T1, α-synuclein (AS) filaments; test: Radioligand binding assay of α-synuclein
displacement of the radioligand from the AS filaments [2],Kd [3],fold weaker binding than BF1 ([2]; Ki relative to BF1),Structure (SMILES),Ki ([1]; ref Lockhart et al. 2005),Kd ([1]; ref Lockhart et al. 2005),Ki ([1]; ref Ye et al. 2005)
dose-dependent displacement,–,–,"CN(C)c1ccc(-c2cc3cc(Br)ccc3o2)cc1 [BF1, 5-bromo-2-(4-dimethylaminophenyl)benzofuran]",3 nM,–,–
–,–,–,"CNc1ccc(-c2nc3ccc(C)cc3s2)cc1 [Me-BTA1, 2-[4′-(methylamino)phenyl]-6-methylbenzothiazole]",–,4.2 nM,–
dose-dependent displacement,4.16 nM,around fourfold weaker,"CNc1ccc(-c2nc3ccc(O)cc3s2)cc1 [PIB, 2-[4′-(methylamino)phenyl]-6-hydroxybenzothiazole]",–,–,25 nM
